{
  "source": "patent US7939626B2",
  "about": "“Chemoselective ligation” (The Regents of the University of California, priority 2000, dated 2011)",
  "key": {"Jurkat cells [1]": {"test_system": "Jurkat cells", "test": "Cell surface disulfide bond reduction: free sulfhydryl groups detected with iodoacetylbiotin and FITC-avidin", "assay_type": "cell-based, human", "conditions": "1 mM phosphine, 1 hour, relative to cells exposed to iodoacetylbiotin alone, FIG. 9", "experimental": "To satisfy the requirement of chemical orthogonality, both participants in the reaction may not engage functional groups endogenous to cells. Triarylphosphines are mild reducing agents, which raises the possibility of disulfide bond reduction as an undesirable side reaction. We addressed this issue by incubating Jurkat cells with triarylphosphine, an intermediate in the synthesis of 47, and quantifying the appearance of free sulfhydryl groups on the cell surface with iodoacetylbiotin and FITC-avidin (FIG. 9). Following incubation, cells were pelleted washed with PBS, and diluted to a volume of 240 μl. Samples were combined with 60 μl of a solution of iodoacetylbiotin (5 mM in PBS), After incubation in the dark at room temperature for 1.5 hrs, the cells were washed with buffer, stained with FITC-avidin, and analyzed by flow cytometry.\nAfter 1 hour in the presence of 1 mM triarylphosphine, no detectable increase in free sulfhydryl groups was observed relative to cells exposed to iodoacetylbiotin alone (FIG. 9). In a positive control experiment, Jurkat cells were incubated with the trialkylphosphine TCEP (1 mM, 1 hour, room temperature), a commercial disulfide bond reducing agent. […] Therefore, triarylphosphines are essentially unreactive toward disulfide bonds under these conditions, rendering ligation with azides the predominant pathway for reactivity."}, "Jurkat cells [2]": {"test_system": "Jurkat cells", "test": "Cell surface azide expression: reaction with biotinylated phosphine, FITC-avidin staining, flow cytometry", "assay_type": "cell-based, human"}, "Jurkat cells [3]": {"test_system": "Jurkat cells", "test": "Competition with ManLev metabolism: cell surface ketone detection with biotin hydrazide and FITC-avidin, flow cytometry", "assay_type": "cell-based, human", "conditions": "3 days, increasing concentrations of acetylated ManAz (Ac4MA) with acetylated ManLev (Ac4ML), FIG. 3"}, "HeLa cells": {"test_system": "HeLa cells", "test": "Cell surface azide expression and growth after the modified Staudinger reaction in HeLa cells"}, "Jurkat cells [4]": {"test_system": "Jurkat cells", "test": "Growth of Jurkat cells incubated with ManAz for three days (cell counting)", "assay_type": "cell-based, human", "conditions": "ManAz at a range of concentrations, ManNAc as negative control, FIG. 1", "experimental": "Jurkat cell cultures. Cell cultures of Jurkat were maintained in RPMI 1640 media (Gibco Laboratories, Grand Island, N.Y.) supplemented with 5% fetal bovine serum (FBS, Hyclone, Logan, Utah), 50 units/mL of penicillin and 50 μg/mL of streptomycin (Mediatech, Hemdon, Va.), in a humidified 5% CO2 atmosphere at 37° C. Cell densities were determined using a Coulter Counter-Z2 (Coulter, Miami, Fla.),\nTreatment of cells with mannosamine derivatives. Cultures of Jurkat cells were seeded at a density of 1.25×10^5 cells/mL into 12-well tissue culture plates in a total volume of 2 mL of culture media. The appropriate amount of each sugar (1, 3, 20, 36, 37) in a solution of PBS was added and the cells were incubated for 3 d. Control wells containing no added sugar were also seeded with cells and incubated.\n(§1) Toxicity was ascertained by incubating Jurkat cells, a human T-cell lymphoma cell line, with ManAz for three days at a range of concentrations, using the natural substrate ManNAc (1) as a negative control. Each experiment was performed in triplicate. The cells were counted to determine whether addition of 20 was inhibiting cell growth."}, "Jurkat cells [5]": {"test_system": "Jurkat cells", "test": "Propidium iodide assay, percentage of viable cells by flow cytometry", "assay_type": "cell-based, human", "conditions": "Jurkat cells after 3 days with ManAz, FIG. 2", "experimental": "Flow cytometry. Flow cytometry analysis was performed on a Coulter EPICS® XL-MCL cytometer (Coulter, Miami, Fla.) using a 488 nm argon laser. At least 10^4 viable cells were analyzed from each sample. Dead cells were excluded from the analysis using forward/side scatter gating.\nPropidium iodide assay. After growth in the presence of the appropriate sugars, cells were pelleted (3000×g, 2 min), washed twice with 1 mL avidin staining buffer (0.1% NaN3, 0.1% FBS in PBS, pH 7.4) and diluted to a volume of 300 μL. Immediately prior to flow cytometry analysis, 10 μL of propidium iodide solution (1 mM in PBS) was added to each sample.\nas §1"}, "cell surface": {"test_system": "cell surface", "test": "Side-by-side comparison with the cell surface ketone reaction", "assay_type": "cell-based", "conditions": "same reagent concentrations", "description": "This may reflect either a faster reaction at the cell surface, or more efficient metabolism of azidosugar 20 as compared to the ketosugar. The azide has a major advantage over the ketone in that its reactivity is unique in a cellular context due its abiotic nature. Ketones, by contrast, abound inside cells in the form of metabolites such as pyruvic acid and oxaloacetate. It should be noted that the modified Staudinger reaction is chemically orthogonal to ketone ligations and should allow tandem modification of cell surfaces with the two chemistries."}},
  "data": [
    {"compound": "O=C(O)CCP(CCC(=O)O)CCC(=O)O", "note": "[TCEP]", "values": [
      {"measurement": "free sulfhydryl groups on the cell surface", "setting": "Jurkat cells [1]", "value": "dramatic increase in free cell-surface sulfhydryl groups"}
    ]},
    {"compound": "tunicamycin [reference compound]", "values": [
      {"measurement": "fluorescence signal with tunicamycin added during azidosugar incubation", "setting": "Jurkat cells [2]; tunicamycin present during incubation with the azidosugar", "value": "reduced"}
    ]},
    {"compound": "CC(=O)OC[C@H]1OC(OC(C)=O)[C@@H](NC(=O)CN=[N+]=[N-])[C@@H](OC(C)=O)[C@@H]1OC(C)=O", "note": "(stereo partly drawn) [compound 36, 1,3,4,6-Tetra-O-acetyl-N-azidoacetylmannosamine]", "values": [
      {"measurement": "fluorescence from ketone labeling (competition with acetylated ManLev)", "setting": "Jurkat cells [3]", "value": "proportionately decreasing fluorescence"},
      {"measurement": "biotin moieties accumulated on the cell surface", "setting": "Jurkat cells [2]; 40 μM acetylated 3 for 3 days, then 2 mM compound 5 for 3 hours", "value": "approximately 4.5 million"},
      {"measurement": "biotin moieties accumulated on the cell surface", "setting": "Jurkat cells [2]; 40 AM acetylated 20 for 3 days, then 2 mM compound 47 for 3 hours", "value": "approximately 4.5 million"},
      {"measurement": "biotin moieties accumulated on the cell surface", "setting": "Jurkat cells [2]; acetylated 20 for 3 days, then 1 mM compound 47 for 1 hour, calibrated with biotinylated beads", "value": "approximately 850,000 biotin moieties"},
      {"measurement": "fluorescence (biotin moieties on the cell surface, FITC-avidin)", "setting": "Jurkat cells [2]; acetylated azidosugar 20 μM for 3 days, then compound 47 (1 mM in PBS, pH 7.4) 1 hr at room temperature, versus untreated cells, FIG. 5", "value": "dramatic increase in fluorescence"},
      {"measurement": "growth rate after the modified Staudinger reaction", "setting": "HeLa cells; HeLa cells cultured for an additional 3 days after the reaction", "value": "no change in growth rate"},
      {"measurement": "fluorescence after azidosugar incubation and phosphine reaction", "setting": "HeLa cells; HeLa cells, compared with the Jurkat result", "value": "responded similarly"}
    ]},
    {"compound": "[N-]=[N+]=NCC(=O)N[C@@H]1C(O)O[C@H](CO)[C@@H](O)[C@@H]1O", "note": "(stereo partly drawn) [compound 20, N-azidoacetylmannosamine]", "values": [
      {"measurement": "number of cells observed after 3 days of growth", "setting": "Jurkat cells [4]", "value": "a decrease in the number of cells observed after 3 days of growth in a dose-dependent fashion"},
      {"measurement": "percentage of viable cells", "setting": "Jurkat cells [5]", "value": "No significant change in the percentage of viable cells"},
      {"measurement": "fluorescence of azidosugar metabolism plus phosphine reaction versus ketosugar metabolism plus hydrazide reaction", "setting": "cell surface", "value": "two-fold higher fluorescence"}
    ]}
  ]
}
